The supplement of paper PMC10307832

Columns and labels:
Assay in all cases: relative viability (nuclei count vs DMSO), 5 days (fraction); higher = more cells survive
[1] = test system: BEN
In short: (§1)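 Relative viability equals treated-well nuclei counts divided by vehicle-well nuclei counts. Counts came from 4× images of lung cancer cell lines grown in 1536-well plates for 5 days after pin-tool dosing on the day after seeding. Dosing used one drug alone or a fixed anchor-drug dose plus five library-drug doses (not always all listed) in √10 steps, and values are medians of duplicate plates.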

[2] = test system: NCI-H727
In short: as §1

[3] = test system: NCI-H2405
In short: as §1

[4] = test system: NCI-H322M
In short: as §1

[5] = test system: NCI-H3122
In short: as §1

[6] = test system: NCI-H1355
In short: as §1

[7] = test system: RERF-LC-KJ
In short: as §1

[8] = test system: SK-LU-1
In short: as §1

[9] = test system: NCI-H2023
In short: as §1

[10] = test system: HOP-62
In short: as §1

[11] = test system: NCI-H2087
In short: as §1

[12] = test system: NCI-H1793
In short: as §1

Question: Which relative viability ([1]; first compound 0.04 µM) does the source give for `Clc1ccc(Nc2nnc(Cc3ccncc3)c3ccccc23)cc1` [Vatalanib] + CC(=O)c1c(C)c2cnc(Nc3ccc(N4CCNCC4)cn3)nc2n(C2CCCC2)c1=O [Palbociclib] (partner 0.5 µM) here?
Answer: 0.474

Question: And the relative viability ([1]; first compound 0.1265 µM)?
Answer: 0.456

Question: What about the relative viability ([1]; first compound 0.4 µM) of the same compound?
Answer: 0.948

Question: And the relative viability ([1]; first compound 1.265 µM)?
Answer: 0.489

Question: And the relative viability ([1]; first compound 4 µM)?
Answer: 0.489

Question: What about the relative viability ([2]; first compound 0.1265 µM) of the same compound?
Answer: 0.611

Question: What about the relative viability ([2]; first compound 0.4 µM) of the same compound?
Answer: 0.683

Question: And the relative viability ([2]; first compound 1.265 µM)?
Answer: 0.66

Question: What about the relative viability ([2]; first compound 4 µM) of the same compound?
Answer: 0.638

Question: And the relative viability ([3]; first compound 0.04 µM)?
Answer: 0.555

Question: What about the relative viability ([3]; first compound 0.1265 µM) of the same compound?
Answer: 0.496

Question: What about the relative viability ([3]; first compound 0.4 µM) of the same compound?
Answer: 0.54

Question: What about the relative viability ([3]; first compound 4 µM) of the same compound?
Answer: 0.529

Question: And the relative viability ([4]; first compound 0.04 µM)?
Answer: 0.432

Question: What about the relative viability ([4]; first compound 0.1265 µM) of the same compound?
Answer: 0.492

Question: What about the relative viability ([4]; first compound 0.4 µM) of the same compound?
Answer: 0.49

Question: What about the relative viability ([4]; first compound 4 µM) of the same compound?
Answer: 0.501

Question: And the relative viability ([5]; first compound 0.04 µM)?
Answer: 0.163

Question: What about the relative viability ([5]; first compound 0.1265 µM) of the same compound?
Answer: 0.213

Question: What about the relative viability ([5]; first compound 0.4 µM) of the same compound?
Answer: 0.195

Question: And the relative viability ([5]; first compound 1.265 µM)?
Answer: 0.237

Question: What about the relative viability ([5]; first compound 4 µM) of the same compound?
Answer: 0.182

Question: And the relative viability ([6]; first compound 0.04 µM)?
Answer: 0.434

Question: What about the relative viability ([6]; first compound 0.1265 µM) of the same compound?
Answer: 0.428

Question: And the relative viability ([6]; first compound 0.4 µM)?
Answer: 0.424

Question: What about the relative viability ([6]; first compound 1.265 µM) of the same compound?
Answer: 0.35

Question: What about the relative viability ([6]; first compound 4 µM) of the same compound?
Answer: 0.388

Question: What about the relative viability ([7]; first compound 0.04 µM) of the same compound?
Answer: 1.08

Question: And the relative viability ([7]; first compound 0.1265 µM)?
Answer: 1.05

Question: What about the relative viability ([7]; first compound 0.4 µM) of the same compound?
Answer: 1.02

Question: And the relative viability ([7]; first compound 1.265 µM)?
Answer: 1.02

Question: What about the relative viability ([7]; first compound 4 µM) of the same compound?
Answer: 0.903

Question: What about the relative viability ([8]; first compound 0.04 µM) of the same compound?
Answer: 0.398

Question: And the relative viability ([8]; first compound 0.1265 µM)?
Answer: 0.415

Question: And the relative viability ([8]; first compound 0.4 µM)?
Answer: 0.499

Question: What about the relative viability ([8]; first compound 1.265 µM) of the same compound?
Answer: 0.415

Question: And the relative viability ([8]; first compound 4 µM)?
Answer: 0.385

Question: What about the relative viability ([9]; first compound 0.04 µM) of the same compound?
Answer: 0.375

Question: And the relative viability ([9]; first compound 0.1265 µM)?
Answer: 0.344

Question: And the relative viability ([9]; first compound 0.4 µM)?
Answer: 0.439

Question: What about the relative viability ([9]; first compound 1.265 µM) of the same compound?
Answer: 0.393

Question: And the relative viability ([9]; first compound 4 µM)?
Answer: 0.366

Question: What about the relative viability ([10]; first compound 0.04 µM) of the same compound?
Answer: 0.459

Question: And the relative viability ([10]; first compound 0.1265 µM)?
Answer: 0.436

Question: And the relative viability ([10]; first compound 0.4 µM)?
Answer: 0.417

Question: What about the relative viability ([10]; first compound 1.265 µM) of the same compound?
Answer: 0.45

Question: What about the relative viability ([10]; first compound 4 µM) of the same compound?
Answer: 0.481

Question: And the relative viability ([11]; first compound 0.04 µM)?
Answer: 0.251

Question: What about the relative viability ([11]; first compound 0.1265 µM) of the same compound?
Answer: 0.209

Question: And the relative viability ([11]; first compound 0.4 µM)?
Answer: 0.205

Question: What about the relative viability ([11]; first compound 1.265 µM) of the same compound?
Answer: 0.268

Question: And the relative viability ([11]; first compound 4 µM)?
Answer: 0.22

Question: And the relative viability ([12]; first compound 0.04 µM)?
Answer: 0.274

Question: And the relative viability ([12]; first compound 0.1265 µM)?
Answer: 0.262

Question: And the relative viability ([12]; first compound 0.4 µM)?
Answer: 0.324

Question: What about the relative viability ([12]; first compound 1.265 µM) of the same compound?
Answer: 0.285

Question: What about the relative viability ([12]; first compound 4 µM) of the same compound?
Answer: 0.319
